Test [1] deals with CAPAN-2, PANC-1, and MIAPACA-2 cells. As to the kind of experiment: Colony formation. The class given is cell-based. The settings on record: 7 days. On the procedure:
Fig. 4 N4 suppresses pancreatic cancer cell proliferation and migration and induces apoptosis. A Pancreatic cancer cells (CAPAN-2, PANC-1, MIAPACA-2, BXPC-3, HPAC, and CFPAC-1) and normal cells (HPNE, HAF) were incubated with the indicated concentration of N4 for 48 h. MTS assays were performed to detect the N4-mediated inhibition of cell proliferation. Data are shown as mean ± SD, *P < 0.05, **P < 0.01, ***P < 0.001, ****P < 0.0001, n.s. not significant by one-way ANOVA followed by multiple comparisons. B, C CAPAN-2, PANC-1, and MIAPACA-2 cells were treated with N4 (B) or C188-9 (C) for 7 days. The cells fixed and stained, and colony numbers were calculated. Experiments were carried out in triplicate with identical results obtained. […] Apoptotic cells were analyzed as described in Materials and Methods. […] In F, after 48 h transfection, transfected cells were seeded in 96-well plates, and cells were enumerated at day 1, day 2, and day 4, In G, different cells transfected with different siRNA were treated with the indicated concentrations of N4, and cell viability measured after a 48 h treatment. Data are expressed as mean ± SD, *P < 0.05, ***P < 0.001, n.s. not significant by one-way ANOVA followed by multiple comparisons. […] Data are expressed as mean ± SD, *P < 0.05, ***P < 0.001, n.s. not significant; Student’s t tests were performed. […]

The target in test [2] is His-STAT3^127-722 protein (Homo sapiens, UniProt P40763). The test is described as follows: Microscale thermophoresis (MST) assay, STAT3^127–722. The class given is binding. More on the design: made in house. An excerpt: (§1) Fig. 3 N4 interacts with the STAT3-SH2 domain and interferes with the STAT3-EGFR and STAT3-NF-κB interactions. […] C–E The binding between N4 and STAT3 was examined in (C) SPR and (D) MST experiments. His-STAT3^127-722 protein was purified and used to examine the affinity between STAT3 and N4. (E) The binding between N4 and STAT3^SH2 was confirmed in MST assays. STAT3-SH2 protein was purified and labeled. N4 was serially diluted and mixed with equal volumes of labeled STAT3^SH2 protein. The MST signal was measured, and the data were analyzed by MO analysis software. F, G The FLAG-tag and HA-tag STAT3 expression plasmid was transfected into 293 T cells, followed by the addition of the indicated concentrations of N4. After 24 h, cells were lysed, and immunoprecipitation experiments were performed as described in Materials and Methods. H N4 represses STAT3 dimerization in pancreatic cancer cells. I After a 24 h treatment with 2 μM N4, pancreatic cancer cells were stimulated with IL-6 for 30 min. Cell lysates were immunoprecipitated with STAT3 overnight. […]
The MST assay was previously described. Binding affinities of N4 with the purified His-STAT3-SH2 were measured using the Monolith NT.115 device (NanoTemper Technologies). […] The samples were then loaded into premium capillaries (NanoTemper Technologies) and measured using the Monolith NT.115 device. […]

For test [3], the target named is T1, STAT3-NF-κB complex (Homo sapiens, UniProt P40763).
T1 construct: endogenous in cells; host or cells: PANC-1
As to the kind of experiment: Co-immunoprecipitation, STAT3-NF-κB interaction. The test is classed as cell-based. To be noted: PANC-1 cells, 2 μM, 24 h.
Excerpt: as §1, with “overnight. The precipitates were washed, suspended in non-reducing sample buffer, and boiled for 10 min. The indicated antibodies were used for western blot assays.” for “overnight.”
Co-IP was performed as previously described. […] After overnight incubation, the precipitates were washed and analyzed using western blotting.

We go through one compound from PMC7906907, “Targeting STAT3 by a small molecule suppresses pancreatic cancer progression” (Oncogene, 2021).

SMILES strings stand for the structures.

Sequence of His-STAT3^127-722 protein (P40763 127-722): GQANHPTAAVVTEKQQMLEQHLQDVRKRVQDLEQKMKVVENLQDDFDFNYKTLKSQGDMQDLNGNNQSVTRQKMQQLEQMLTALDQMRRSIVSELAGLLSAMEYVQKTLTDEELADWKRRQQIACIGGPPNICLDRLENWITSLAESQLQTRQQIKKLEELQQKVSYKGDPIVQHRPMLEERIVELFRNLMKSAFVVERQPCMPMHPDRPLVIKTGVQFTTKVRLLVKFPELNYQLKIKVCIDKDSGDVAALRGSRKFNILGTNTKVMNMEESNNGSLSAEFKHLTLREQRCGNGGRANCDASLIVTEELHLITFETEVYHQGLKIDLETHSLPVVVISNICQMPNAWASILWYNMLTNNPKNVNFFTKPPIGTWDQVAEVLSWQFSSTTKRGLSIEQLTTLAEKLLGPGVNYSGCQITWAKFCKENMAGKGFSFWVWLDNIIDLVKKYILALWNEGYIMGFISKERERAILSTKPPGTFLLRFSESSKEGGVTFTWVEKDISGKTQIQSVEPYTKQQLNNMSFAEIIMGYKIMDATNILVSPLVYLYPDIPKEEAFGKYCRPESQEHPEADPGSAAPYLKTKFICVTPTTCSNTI
T1 sequence (P40763 2-770 limits assumed, one chain of several): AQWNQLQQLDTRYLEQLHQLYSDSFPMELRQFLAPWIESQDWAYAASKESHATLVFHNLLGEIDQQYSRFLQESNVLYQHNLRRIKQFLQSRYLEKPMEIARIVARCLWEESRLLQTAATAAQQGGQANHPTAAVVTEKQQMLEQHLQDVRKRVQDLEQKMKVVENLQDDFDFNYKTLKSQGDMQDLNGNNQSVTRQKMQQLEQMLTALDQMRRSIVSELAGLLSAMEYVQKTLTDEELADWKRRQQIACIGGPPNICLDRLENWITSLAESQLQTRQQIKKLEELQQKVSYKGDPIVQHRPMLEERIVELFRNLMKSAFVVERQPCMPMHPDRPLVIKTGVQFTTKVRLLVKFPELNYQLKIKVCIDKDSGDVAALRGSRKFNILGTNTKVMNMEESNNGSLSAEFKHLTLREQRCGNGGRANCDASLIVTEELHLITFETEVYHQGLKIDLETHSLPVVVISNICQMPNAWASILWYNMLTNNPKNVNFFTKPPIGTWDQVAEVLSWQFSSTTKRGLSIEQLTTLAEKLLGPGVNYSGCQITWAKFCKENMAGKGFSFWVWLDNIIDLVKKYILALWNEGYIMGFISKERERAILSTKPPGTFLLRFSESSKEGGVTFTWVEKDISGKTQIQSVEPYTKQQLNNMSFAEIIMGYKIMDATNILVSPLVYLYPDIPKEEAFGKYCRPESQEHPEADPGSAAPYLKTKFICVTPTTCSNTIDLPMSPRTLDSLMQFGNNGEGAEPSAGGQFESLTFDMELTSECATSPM

`COc1cc2c(cc1C(=O)Nc1cccc3cccnc13)CCC1C(C)(C)C(=O)C(C#N)=C[C@]21C` (stereo partly shown) [N4]: the “colony formation, compared with C188-9 and BP-1-102” value in test [1] was “more potently inhibited”. For the same compound, the Kd in test [2] (STAT3^127-722, value printed in figure) worked out at 2020 nM; in test [2] (STAT3^127–722) it was 2020 nM. The “interaction between STAT3 and NF-κB” value in test [3] is recorded as “blocked”.
